Values quoted from earlier work as cited in patent US20040101542A1, “Skin care composition with retinyl ester as vitamin a propionate retinyl palmitate d-alpha tocopherol rice amino acids and liposomes and method of application” (priority 2003, published 2004).

Settings: at 24 hours

uptake and distribution in the deeper skin strata, liposomal formulations versus solutions or emulsions: 3-4 times higher
Compound: CC1=C(/C=C/C(C)=C/C=C/C(C)=C/C(=O)O)C(C)(C)CCC1 [retinoic acid]
